Assay results taken from PubChem BioAssay (NCI).
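How tested: cells in 96-well plates exposed to compound for 48 hours at five concentrations. Definition used: TGI = concentration required for complete inhibition of growth.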

Experiments:
Assay in all cases: DTP human tumour cell line panel, 48 h
U251 CNS = tested on: U251 CNS
RXF 393 renal = tested on: RXF 393 renal
UACC-62 melanoma = tested on: UACC-62 melanoma
UACC-257 melanoma = tested on: UACC-257 melanoma
786-0 renal = tested on: 786-0 renal
BT-549 breast = tested on: BT-549 breast
M14 melanoma = tested on: M14 melanoma
SW-620 colon = tested on: SW-620 colon
SK-MEL-5 melanoma = tested on: SK-MEL-5 melanoma
KM12 colon = tested on: KM12 colon
OVCAR-3 ovarian = tested on: OVCAR-3 ovarian
MCF7 breast = tested on: MCF7 breast
SF-295 CNS = tested on: SF-295 CNS
SK-OV-3 ovarian = tested on: SK-OV-3 ovarian
SK-MEL-28 melanoma = tested on: SK-MEL-28 melanoma
HOP-62 NSCLC = tested on: HOP-62 NSCLC
TK-10 renal = tested on: TK-10 renal
LOX IMVI melanoma = tested on: LOX IMVI melanoma
OVCAR-4 ovarian = tested on: OVCAR-4 ovarian
MALME-3M melanoma = tested on: MALME-3M melanoma
HCC-2998 colon = tested on: HCC-2998 colon
NCI/ADR-RES ovarian = tested on: NCI/ADR-RES ovarian
MOLT-4 leukemia = tested on: MOLT-4 leukemia
SN12C renal = tested on: SN12C renal
NCI-H226 lung = tested on: NCI-H226 lung
SF-539 CNS = tested on: SF-539 CNS
T-47D breast = tested on: T-47D breast
NCI-H23 lung = tested on: NCI-H23 lung
UO-31 renal = tested on: UO-31 renal
CAKI-1 renal = tested on: CAKI-1 renal
RPMI-8226 leukemia = tested on: RPMI-8226 leukemia
OVCAR-5 ovarian = tested on: OVCAR-5 ovarian
SNB-19 CNS = tested on: SNB-19 CNS
HCT-116 colon = tested on: HCT-116 colon
SK-MEL-2 melanoma = tested on: SK-MEL-2 melanoma
HOP-92 NSCLC = tested on: HOP-92 NSCLC
MDA-MB-231 breast = tested on: MDA-MB-231 breast
ACHN renal = tested on: ACHN renal
COLO 205 colon = tested on: COLO 205 colon
MDA-N = tested on: MDA-N
OVCAR-8 ovarian = tested on: OVCAR-8 ovarian
MDA-MB-435 = tested on: MDA-MB-435
SNB-75 CNS = tested on: SNB-75 CNS
K-562 leukemia = tested on: K-562 leukemia
DU-145 prostate = tested on: DU-145 prostate
HT29 colon = tested on: HT29 colon
SF-268 CNS = tested on: SF-268 CNS
HL-60(TB) leukemia = tested on: HL-60(TB) leukemia
HS 578T breast = tested on: HS 578T breast
A549 NSCLC = tested on: A549 NSCLC
CCRF-CEM leukemia = tested on: CCRF-CEM leukemia
HCT-15 colon = tested on: HCT-15 colon
EKVX NSCLC = tested on: EKVX NSCLC
PC-3 prostate = tested on: PC-3 prostate
NCI-H460 lung = tested on: NCI-H460 lung
NCI-H522 lung = tested on: NCI-H522 lung
IGROV1 ovarian = tested on: IGROV1 ovarian
A498 renal = tested on: A498 renal

Cc1cn(C(=O)NC23CC4CC(CC(C4)C2)C3)c(=O)[nH]c1=O
TGI (U251 CNS): > 100 µM | TGI (RXF 393 renal): > 100 µM | TGI (UACC-62 melanoma): 71.4 µM | TGI (UACC-257 melanoma): > 100 µM | TGI (786-0 renal): > 100 µM | TGI (BT-549 breast): 86.1 µM | TGI (M14 melanoma): > 100 µM | TGI (SW-620 colon): > 100 µM | TGI (SK-MEL-5 melanoma): > 100 µM | TGI (KM12 colon): > 100 µM | TGI (OVCAR-3 ovarian): > 100 µM | TGI (MCF7 breast): > 100 µM | TGI (SF-295 CNS): > 100 µM | TGI (SK-OV-3 ovarian): > 100 µM | TGI (SK-MEL-28 melanoma): > 100 µM | TGI (HOP-62 NSCLC): > 100 µM | TGI (TK-10 renal): > 100 µM | TGI (LOX IMVI melanoma): 83 µM | TGI (OVCAR-4 ovarian): > 100 µM | TGI (MALME-3M melanoma): > 100 µM | TGI (HCC-2998 colon): > 100 µM | TGI (NCI/ADR-RES ovarian): 86.6 µM | TGI (MOLT-4 leukemia): 89.1 µM | TGI (SN12C renal): > 100 µM | TGI (NCI-H226 lung): 65.7 µM | TGI (SF-539 CNS): > 100 µM | TGI (T-47D breast): > 100 µM | TGI (NCI-H23 lung): > 100 µM | TGI (UO-31 renal): > 100 µM | TGI (CAKI-1 renal): > 100 µM | TGI (RPMI-8226 leukemia): 75.1 µM | TGI (OVCAR-5 ovarian): > 100 µM | TGI (SNB-19 CNS): > 100 µM | TGI (HCT-116 colon): > 100 µM | TGI (SK-MEL-2 melanoma): 76.3 µM | TGI (HOP-92 NSCLC): > 100 µM | TGI (MDA-MB-231 breast): 61.3 µM | TGI (ACHN renal): 94.1 µM | TGI (COLO 205 colon): 75.5 µM | TGI (MDA-N): > 100 µM | TGI (OVCAR-8 ovarian): > 100 µM | TGI (MDA-MB-435): > 100 µM | TGI (SNB-75 CNS): > 100 µM | TGI (K-562 leukemia): > 100 µM | TGI (DU-145 prostate): > 100 µM | TGI (HT29 colon): > 100 µM | TGI (SF-268 CNS): > 100 µM | TGI (HL-60(TB) leukemia): 51.2 µM | TGI (HS 578T breast): > 100 µM | TGI (A549 NSCLC): > 100 µM | TGI (CCRF-CEM leukemia): 74.5 µM | TGI (HCT-15 colon): 80.3 µM | TGI (EKVX NSCLC): 65.5 µM | TGI (PC-3 prostate): > 100 µM | TGI (NCI-H460 lung): > 100 µM

CCOC(=O)C(NC(=O)c1ccccc1)(Nc1cc(C)on1)C(F)(F)F (centres undefined)
TGI (U251 CNS): > 100 µM | TGI (RXF 393 renal): > 100 µM | TGI (UACC-62 melanoma): > 100 µM | TGI (UACC-257 melanoma): > 100 µM | TGI (786-0 renal): > 100 µM | TGI (NCI-H522 lung): > 100 µM | TGI (BT-549 breast): > 100 µM | TGI (M14 melanoma): > 100 µM | TGI (SW-620 colon): > 100 µM | TGI (SK-MEL-5 melanoma): > 100 µM | TGI (KM12 colon): > 100 µM | TGI (OVCAR-3 ovarian): > 100 µM | TGI (MCF7 breast): > 100 µM | TGI (SF-295 CNS): > 100 µM | TGI (SK-OV-3 ovarian): > 100 µM | TGI (SK-MEL-28 melanoma): > 100 µM | TGI (HOP-62 NSCLC): > 100 µM | TGI (TK-10 renal): > 100 µM | TGI (LOX IMVI melanoma): > 100 µM | TGI (OVCAR-4 ovarian): > 100 µM | TGI (MALME-3M melanoma): > 100 µM | TGI (HCC-2998 colon): > 100 µM | TGI (NCI/ADR-RES ovarian): > 100 µM | TGI (MOLT-4 leukemia): > 100 µM | TGI (SN12C renal): > 100 µM | TGI (NCI-H226 lung): > 100 µM | TGI (SF-539 CNS): > 100 µM | TGI (T-47D breast): > 100 µM | TGI (NCI-H23 lung): > 100 µM | TGI (UO-31 renal): > 100 µM | TGI (CAKI-1 renal): > 100 µM | TGI (RPMI-8226 leukemia): > 100 µM | TGI (OVCAR-5 ovarian): > 100 µM | TGI (SNB-19 CNS): > 100 µM | TGI (HCT-116 colon): > 100 µM | TGI (SK-MEL-2 melanoma): > 100 µM | TGI (HOP-92 NSCLC): > 100 µM | TGI (MDA-MB-231 breast): 56.2 µM | TGI (ACHN renal): > 100 µM | TGI (COLO 205 colon): > 100 µM | TGI (MDA-N): > 100 µM | TGI (OVCAR-8 ovarian): > 100 µM | TGI (MDA-MB-435): > 100 µM | TGI (SNB-75 CNS): > 100 µM | TGI (K-562 leukemia): > 100 µM | TGI (DU-145 prostate): > 100 µM | TGI (HT29 colon): > 100 µM | TGI (IGROV1 ovarian): > 100 µM | TGI (SF-268 CNS): > 100 µM | TGI (HL-60(TB) leukemia): > 100 µM | TGI (HS 578T breast): > 100 µM | TGI (A549 NSCLC): > 100 µM | TGI (CCRF-CEM leukemia): > 100 µM | TGI (HCT-15 colon): > 100 µM | TGI (EKVX NSCLC): > 100 µM | TGI (PC-3 prostate): > 100 µM

Cc1ccc2ccc(O)cc2c1
TGI (U251 CNS): 48.8 µM | TGI (RXF 393 renal): > 100 µM | TGI (UACC-62 melanoma): > 100 µM | TGI (UACC-257 melanoma): > 100 µM | TGI (786-0 renal): > 100 µM | TGI (NCI-H522 lung): 42.4 µM | TGI (BT-549 breast): 99.4 µM | TGI (M14 melanoma): > 100 µM | TGI (SW-620 colon): > 100 µM | TGI (SK-MEL-5 melanoma): > 100 µM | TGI (KM12 colon): > 100 µM | TGI (OVCAR-3 ovarian): 28.7 µM | TGI (MCF7 breast): > 100 µM | TGI (SF-295 CNS): > 100 µM | TGI (SK-OV-3 ovarian): > 100 µM | TGI (SK-MEL-28 melanoma): > 100 µM | TGI (HOP-62 NSCLC): > 100 µM | TGI (TK-10 renal): > 100 µM | TGI (LOX IMVI melanoma): > 100 µM | TGI (OVCAR-4 ovarian): 52 µM | TGI (MALME-3M melanoma): > 100 µM | TGI (HCC-2998 colon): 46.8 µM | TGI (NCI/ADR-RES ovarian): 60.4 µM | TGI (MOLT-4 leukemia): 55.9 µM | TGI (SN12C renal): > 100 µM | TGI (NCI-H226 lung): > 100 µM | TGI (SF-539 CNS): > 100 µM | TGI (T-47D breast): > 100 µM | TGI (NCI-H23 lung): > 100 µM | TGI (UO-31 renal): 67.1 µM | TGI (CAKI-1 renal): > 100 µM | TGI (RPMI-8226 leukemia): 66.4 µM | TGI (OVCAR-5 ovarian): > 100 µM | TGI (SNB-19 CNS): > 100 µM | TGI (HCT-116 colon): > 100 µM | TGI (SK-MEL-2 melanoma): > 100 µM | TGI (HOP-92 NSCLC): 80.9 µM | TGI (MDA-MB-231 breast): > 100 µM | TGI (ACHN renal): > 100 µM | TGI (COLO 205 colon): > 100 µM | TGI (MDA-N): 42.6 µM | TGI (OVCAR-8 ovarian): 60.9 µM | TGI (MDA-MB-435): 46.8 µM | TGI (SNB-75 CNS): > 100 µM | TGI (K-562 leukemia): 47.1 µM | TGI (DU-145 prostate): > 100 µM | TGI (HT29 colon): > 100 µM | TGI (A498 renal): > 100 µM | TGI (IGROV1 ovarian): 57.3 µM | TGI (SF-268 CNS): > 100 µM | TGI (HL-60(TB) leukemia): 52.8 µM | TGI (HS 578T breast): > 100 µM | TGI (A549 NSCLC): > 100 µM | TGI (CCRF-CEM leukemia): 61.8 µM | TGI (HCT-15 colon): > 100 µM | TGI (EKVX NSCLC): > 100 µM | TGI (PC-3 prostate): 52.9 µM | TGI (NCI-H460 lung): > 100 µM
